Values joined by “and” are separate entries in the source; they are usually repeats but may differ in a detail not shown here. Identical values can stand only once.
What was measured:
22Rv1 cells [1] = assay: Migration assay (transwell); type: cell-based, human; conditions: 22Rv1, 20 μM, replicates
PC-3 cells [2] = assay: Migration assay (transwell); type: cell-based, human; conditions: PC-3; 40 µM; replicates
DU145 cells [3] = assay: Migration assay (transwell); type: cell-based, human; conditions: DU145, 40 μM, replicates
DU145 xenograft [4] = assay: H&E and Ki67 staining of xenograft tumor tissues; type: in vivo, BALB/c nude mice; conditions: DU145, reference drug groups, replicates
22Rv1 cells [5] = assay: Invasion assay (transwell); type: cell-based, human; conditions: 22Rv1, 20 μM, replicates
PC-3 cells [6] = assay: Anti-proliferation activity assay (CCK8, 72 h); type: cell-based, human; conditions: PC-3, replicates
DU145 cells [7] = assay: Anti-proliferation activity assay (CCK8, 72 h); type: cell-based, human; conditions: DU145, replicates
RWPE-1 cells = assay: Anti-proliferation activity assay (CCK8, 72 h); type: cell-based; conditions: RWPE1, replicates
PC-3 cells [8] = assay: Invasion assay (transwell); type: cell-based, human; conditions: PC-3; 40 µM; replicates
DU145 cells [9] = assay: Invasion assay (transwell); type: cell-based, human; conditions: DU145, 40 μM, replicates
22Rv1 cells [10] = assay: Colony formation assay; type: cell-based, human; conditions: 22Rv1, 20 μM, replicates
DU145 cells [11] = assay: Colony formation assay; type: cell-based, human; conditions: DU145, 40 μM, replicates
22Rv1 cells [12] = assay: Cell cycle assay (PI flow cytometry); type: cell-based, human; conditions: 22Rv1, 20 μM, replicates
PC-3 cells [13] = assay: Cell cycle assay (PI flow cytometry); type: cell-based, human; conditions: PC-3, 40 µM, replicates
DU145 cells [14] = assay: Cell cycle assay (PI flow cytometry); type: cell-based, human; conditions: DU145, 40 μM, replicates
22Rv1 cells [15] = assay: Apoptosis assay (Annexin V-APC/PI flow cytometry); type: cell-based, human; conditions: 22Rv1, 20 μM, replicates
PC-3 cells [16] = assay: Apoptosis assay (Annexin V-APC/PI flow cytometry); type: cell-based, human; conditions: PC-3; 40 µM; replicates
DU145 cells [17] = assay: Apoptosis assay (Annexin V-APC/PI flow cytometry); type: cell-based, human; conditions: DU145, 40 μM, replicates
PC-3 cells [18] = assay: Cell growth assay (5-day course); type: cell-based, human; conditions: PC-3, 40 µM, replicates
DU145 xenograft [19] = assay: In vivo antitumor activity, DU145 xenograft mouse model; parameters: species or system BALB/c nude mice; conditions: for Tumor volume (Fig. 7a): individual mice 1-10, in cm³ (unit assumed)
PC-3 cells [20] = assay: Colony formation assay; type: cell-based, human; conditions: 40 µM, replicates
22Rv1 cells [21] = assay: Anti-proliferation activity assay (CCK8, 72 h); type: cell-based, human; conditions: 22Rv1, replicates

CNC(=O)c1ccc(N2C(=S)N(c3ccc(C#N)c(C(F)(F)F)c3)C(=O)C2(C)C)cc1F [enzalutamide]
Cell migration (cell number) (22Rv1 cells [1]): 1459 cell number and 1378 cell number and 1390 cell number | Cell migration (cell number) (PC-3 cells [2]): 1100 cell number and 1076 cell number and 923 cell number | Cell migration (cell number) (DU145 cells [3]): 4002 cell number and 3988 cell number and 4105 cell number | Positive rate ( % ) (Fig. 7f) (DU145 xenograft [4]): 30.71% and 31.3% and 29.1% | Cell invasion (cell number) (22Rv1 cells [5]): 1680 cell number and 1543 cell number | optical density (PC-3 cells [6]; 2.5 uM): 1.074 and 1.037 and 1.019 | optical density (PC-3 cells [6]; 5 uM): 1.05 and 1.004 and 0.976 | optical density (PC-3 cells [6]; 10 uM): 1.021 and 0.964 and 0.924 | optical density (PC-3 cells [6]; 20 uM): 0.935 and 0.906 and 0.894 | optical density (PC-3 cells [6]; 40 uM): 0.769 and 0.721 and 0.688 | optical density (PC-3 cells [6]; 80 uM): 0.516 and 0.456 and 0.403 | optical density (DU145 cells [7]; 2.5 uM): 1.167 and 1.145 and 1.124 | optical density (DU145 cells [7]; 5 uM): 1.127 and 1.118 and 1.073 | optical density (DU145 cells [7]; 10 uM): 1.073 and 1.05 and 1.035 | optical density (DU145 cells [7]; 20 uM): 0.93 and 0.926 and 0.882 | optical density (DU145 cells [7]; 40 uM): 0.602 and 0.626 and 0.546 | optical density (DU145 cells [7]; 80 uM): 0.325 and 0.374 and 0.256 | optical density (RWPE-1 cells; 2.5 uM): 0.992 and 1.025 and 0.996 | optical density (RWPE-1 cells; 5 uM): 0.949 and 0.989 and 0.956 | optical density (RWPE-1 cells; 10 uM): 0.858 and 0.962 and 0.898 | optical density (RWPE-1 cells; 20 uM): 0.786 and 0.838 and 0.802 | optical density (RWPE-1 cells; 40 uM): 0.517 and 0.686 and 0.593 | optical density (RWPE-1 cells; 80 uM): 0.393 and 0.433 and 0.408 | Cell invasion (cell number) (PC-3 cells [8]): 2300 cell number and 2405 cell number and 2379 cell number | Cell invasion (cell number) (DU145 cells [9]): 1897 cell number and 1923 cell number and 1867 cell number | Colony formation (cell number) (22Rv1 cells [10]): 560 cell number and 530 cell number and 570 cell number | Colony formation (cell number) (DU145 cells [11]): 205 cell number and 218 cell number and 226 cell number | Cell cycle percentages ( % ) G0/G1 (22Rv1 cells [12]): 69.98% and 71.27% and 73.69% | Cell cycle percentages ( % ) G2/M (22Rv1 cells [12]): 14.06% and 12.61% and 11.06% | Cell cycle percentages ( % ) S (22Rv1 cells [12]): 15.96% and 16.12% and 15.25% | Cell cycle percentages ( % ) G0/G1 (PC-3 cells [13]; G0/G1): 70.26% and 71.93% and 73.13% | Cell cycle percentages ( % ) G2/M (PC-3 cells [13]; G2/M): 18.02% and 17.63% and 16.26% | Cell cycle percentages ( % ) S (PC-3 cells [13]; S): 11.72% and 10.44% and 10.61% | Cell cycle percentages ( % ) G0/G1 (DU145 cells [14]): 57.27% and 58.94% and 59.05% | Cell cycle percentages ( % ) G2/M (DU145 cells [14]): 23.68% and 22.3% and 24.16% | Cell cycle percentages ( % ) S (DU145 cells [14]): 19.05% and 18.76% and 16.79% | Apoptosis (%) (22Rv1 cells [15]): 4.36% and 5.45% and 6.23% | Apoptosis (%) (PC-3 cells [16]): 5.39% and 5.46% and 5.82% | Apoptosis (%) (DU145 cells [17]): 11.89% and 10.52% and 9.68% | optical density (PC-3 cells [18]; day 0): 0.269 | optical density (PC-3 cells [18]; day 1): 0.288 and 0.29 and 0.285 | optical density (PC-3 cells [18]; day 2): 0.517 and 0.519 and 0.473 | optical density (PC-3 cells [18]; day 3): 0.701 and 0.705 and 0.6 | optical density (PC-3 cells [18]; day 4): 1.438 and 1.323 and 1.218 | antitumor activity (in words) (DU145 xenograft [19]; DU145 xenograft, 100 mg/kg orally once a day, seven weeks): only delayed the tumor growth | Tumor volume (Fig. 7a) (DU145 xenograft [19]; Day 1): 0.06831 and 0.0728 and 0.08842 and 0.07149 and 0.08267 and 0.0792 and 0.07365 and 0.09986 and 0.09475 and 0.08367 | Tumor volume (Fig. 7a) (DU145 xenograft [19]; Day 3): 0.1054 and 0.1066 and 0.1367 and 0.1112 and 0.1273 and 0.1097 and 0.1065 and 0.1474 and 0.1553 and 0.1239 | Tumor volume (Fig. 7a) (DU145 xenograft [19]; Day 5): 0.1354 and 0.1343 and 0.1923 and 0.144 and 0.1749 and 0.1417 and 0.1334 and 0.2305 and 0.2202 and 0.1878 | Tumor volume (Fig. 7a) (DU145 xenograft [19]; Day 7): 0.1816 and 0.1822 and 0.2496 and 0.1945 and 0.234 and 0.2013 and 0.2322 and 0.3186 and 0.2993 and 0.2348 | Tumor volume (Fig. 7a) (DU145 xenograft [19]; Day 9): 0.236 and 0.2398 and 0.2946 and 0.2457 and 0.337 and 0.2675 and 0.2935 and 0.3821 and 0.38 and 0.3125 | Tumor volume (Fig. 7a) (DU145 xenograft [19]; Day 11): 0.2749 and 0.3065 and 0.4056 and 0.2756 and 0.3984 and 0.3105 and 0.3205 and 0.5039 and 0.4644 and 0.382 | Tumor volume (Fig. 7a) (DU145 xenograft [19]; Day 13): 0.3292 and 0.3636 and 0.3775 and 0.3177 and 0.4798 and 0.3714 and 0.3893 and 0.5706 and 0.5218 and 0.4116 | Tumor volume (Fig. 7a) (DU145 xenograft [19]; Day 15): 0.4104 and 0.4397 and 0.4958 and 0.3678 and 0.5629 and 0.4479 and 0.4493 and 0.6357 and 0.6164 and 0.4936 | Tumor volume (Fig. 7a) (DU145 xenograft [19]; Day 17): 0.473 and 0.4645 and 0.5899 and 0.4301 and 0.6355 and 0.511 and 0.4922 and 0.7115 and 0.6607 and 0.5477 | Tumor volume (Fig. 7a) (DU145 xenograft [19]; Day 19): 0.458 and 0.4883 and 0.6303 and 0.4489 and 0.6566 and 0.5391 and 0.5247 and 0.7614 and 0.6322 and 0.6372 | Tumor weight (Fig. 7c) (DU145 xenograft [19]; reference drug groups, individual mice, in g (unit assumed)): 1.15 and 1.34 and 1.28 and 1.42 and 1.33 and 1.5 and 1.37 and 1.08 and 1.22 and 1.16 | Colony formation (cell number) (PC-3 cells [20]): 160 cell number and 145 cell number | optical density (22Rv1 cells [21]; 2.5 uM): 0.81 and 0.838 and 0.791 | optical density (22Rv1 cells [21]; 5 uM): 0.775 and 0.808 and 0.759 | optical density (22Rv1 cells [21]; 10 uM): 0.619 and 0.678 and 0.623 | optical density (22Rv1 cells [21]; 20 uM): 0.455 and 0.528 and 0.472 | optical density (22Rv1 cells [21]; 40 uM): 0.22 and 0.347 and 0.272 | optical density (22Rv1 cells [21]; 80 uM): 0.191
